From ChEMBL document CHEMBL3124766, “Metabolomics Reveal d-Alanine:d-Alanine Ligase As the Target of d-Cycloserine in Mycobacterium tuberculosis” (ACS Med Chem Lett, 2013)
Calls of active or inactive are those of the source. No cut-off for these calls is given here.

Assays:
[1] = system: Mycobacterium tuberculosis; assay: Reduction in intracellular dipeptide D-alanyl-D-alanine pool size in Mycobacterium tuberculosis H37Rv at MIC by filter-based mass spectrometry technique; format: functional, organism-based
[2] = system: Mycobacterium tuberculosis; assay: Antimycobacterial activity against Mycobacterium tuberculosis H37Rv at 0.25 to 16 times MIC after 7 days in presence of L-Alanine; format: functional, organism-based
[3] = system: Mycobacterium tuberculosis; assay: Ratio of MIC for Mycobacterium tuberculosis H37Rv in presence of D-Alanine to MIC for Mycobacterium tuberculosis H37Rv; format: functional
[4] = system: Mycobacterium tuberculosis; assay: Antimycobacterial activity against Mycobacterium tuberculosis H37Rv at 0.25 to 16 times MIC after 7 days in presence of D-Alanine; format: functional, organism-based
[5] = system: Mycobacterium tuberculosis; assay: Reduction in intracellular total Alanine pool size in Mycobacterium tuberculosis H37Rv at MIC by filter-based mass spectrometry technique; format: functional, organism-based
[6] = molecular target: T1, D-alanine--D-alanine ligase (Mycobacterium tuberculosis) (UniProt P9WP31); assay: Inhibition of D-alanine-D-alanine ligase in Mycobacterium tuberculosis H37Rv assessed as inhibition of denovo D-Alanyl-D-alanine synthesis at 2 times MIC preincubated for 16 hrs followed L-Ala-[13C]-[3H] addition measured over 8 hrs by LC-MS/MS analysis
T1 sequence (whole entry): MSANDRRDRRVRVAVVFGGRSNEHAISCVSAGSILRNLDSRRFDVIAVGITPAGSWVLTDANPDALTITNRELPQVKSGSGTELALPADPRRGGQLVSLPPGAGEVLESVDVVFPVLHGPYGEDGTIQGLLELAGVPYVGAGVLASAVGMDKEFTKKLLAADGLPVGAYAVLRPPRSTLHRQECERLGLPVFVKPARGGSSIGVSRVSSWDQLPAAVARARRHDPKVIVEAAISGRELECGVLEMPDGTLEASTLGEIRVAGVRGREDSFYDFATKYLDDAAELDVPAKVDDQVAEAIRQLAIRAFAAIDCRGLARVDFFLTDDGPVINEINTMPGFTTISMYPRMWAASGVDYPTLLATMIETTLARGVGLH

[7] = molecular target: T1, D-alanine--D-alanine ligase (Mycobacterium tuberculosis); assay: Inhibition of D-alanine-D-alanine ligase in Mycobacterium tuberculosis H37Rv assessed as inhibition of denovo D-Alanyl-D-alanine synthesis at MIC preincubated for 16 hrs followed by L-Ala-[13C]-[3H] addition measured over 8 hrs by LC-MS/MS analysis
[8] = system: Mycobacterium tuberculosis; assay: Reduction in intracellular total Alanine pool size in Mycobacterium tuberculosis H37Rv at 0.25 to 5 times MIC by filter-based technique; format: functional, organism-based
[9] = molecular target: T2, Alanine racemase (Mycobacterium tuberculosis) (UniProt P9WQA9); assay: Inhibition of alanine racemase in Mycobacterium tuberculosis H37Rv at 5 times MIC preincubated for 16 hrs followed by compound re-addition with L-Ala-[13C]-[3H] measured over 8 hrs by LC-MS/MS analysis
T2 sequence (whole entry): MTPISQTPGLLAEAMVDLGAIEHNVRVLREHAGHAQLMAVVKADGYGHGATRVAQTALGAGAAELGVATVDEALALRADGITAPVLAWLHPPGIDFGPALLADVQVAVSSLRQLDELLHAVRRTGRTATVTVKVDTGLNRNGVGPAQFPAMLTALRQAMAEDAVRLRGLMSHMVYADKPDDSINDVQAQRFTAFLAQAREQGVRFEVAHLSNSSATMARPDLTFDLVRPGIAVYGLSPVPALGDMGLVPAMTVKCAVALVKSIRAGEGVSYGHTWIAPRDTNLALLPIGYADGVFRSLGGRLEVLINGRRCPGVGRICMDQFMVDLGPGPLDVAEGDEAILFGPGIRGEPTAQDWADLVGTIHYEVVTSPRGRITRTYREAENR

[10] = system: Mycobacterium tuberculosis; assay: Reduction in intracellular dipeptide D-alanyl-D-alanine pool size in Mycobacterium tuberculosis H37Rv up to 5 times MIC by filter-based mass spectrometry technique; format: functional, organism-based
[11] = molecular target: T1, D-alanine--D-alanine ligase (Mycobacterium tuberculosis); assay: Inhibition of D-alanine-D-alanine ligase in Mycobacterium tuberculosis H37Rv assessed as depletion in D-Alanyl-D-alanine level preincubated for 16 hrs measured post 24 hrs of compound washout
[12] = molecular target: T1, D-alanine--D-alanine ligase (Mycobacterium tuberculosis); assay: Competitive inhibition of D-alanine-D-alanine ligase in Mycobacterium tuberculosis H37Rv at MIC preincubated for 16 hrs followed by D-Ala-[2H] addition measured over 8 hrs by LC-MS/MS analysis
[13] = Drug metabolism in Mycobacterium tuberculosis H37Rv assessed as compound remaining at 0.25 to 5 times MIC for 16 hrs measured 15 to 60 mins post compound washout; format: ADME, organism-based; conditions: Mycobacterium tuberculosis H37Rv cells, read-out: Stability

N[C@H]1CONC1=O [LEVCYCLOSERINE]
Activity [1]: Active
Activity [2]: inactive
Ratio [3]: 4
Activity [4]: inactive
Activity [5]: Active

N[C@@H]1CONC1=O [CYCLOSERINE]
inhibition [6]: Active
inhibition [7]: Active
Activity [8]: Active
inhibition [9]: inactive
Activity [2]: Active
Ratio [3]: 2
Activity [10]: Dose-dependent effect
inhibition [11]: Dose-dependent effect
Activity [4]: inactive
Activity [12]: inactive

N[C@@H]1CON=C1O [CYCLOSERINE]
remaining at 16 h [13]: < 10%

CN[C@@H]1[C@H](O[C@H]2[C@H](O[C@H]3[C@H](O)[C@@H](O)[C@H](N=C(N)N)[C@@H](O)[C@@H]3N=C(N)N)O[C@@H](C)[C@]2(O)C=O)O[C@@H](CO)[C@H](O)[C@H]1O
Activity [10]: inactive
